From patent US8846912B2, “Tartrate salts of quinazoline based EGFR inhibitors containing a zinc binding moiety” (Curis, Inc., priority 2007, dated 2014)
Counter-ions that a name gives are not always drawn. Like-named read-outs stand apart in the source and are kept apart here. Values belong to the compound of their own block, whether it stands above or below them.

Columns and labels:
Prostate_PC3 = experiment: Cell proliferation assay (ATPlite); type: cell-based; settings: PC-3, Prostate adenocarcinoma (Table D); read-out: IC50 in cancer cell line
Protocol: (§1) Cell Proliferation Assay:
(§2) Cancer cell lines were plated at 5,000 to 10,000 per well in 96-well flatted bottomed plates with various concentration of compounds. […] Growth inhibition was accessed by adenosine triphosphate (ATP) content assay using Perkin Elmer ATPlite kit. ATPlite is an ATP monitoring system based on firefly luciferase. Briefly, 25 μl of mammalian cell lysis solution was added to 50 μl of phenol red-free culture medium per well to lyse the cells and stabilize the ATP. 25 μl of substrate solution was then added to the well and subsequently the luminescence was measured.

Breast_SkBr3 = experiment: Cell proliferation assay (ATPlite); type: cell-based; settings: Homo sapiens, SK-BR-3; SKBr3, Breast carcinoma (Table D); read-out: IC50 in cancer cell line
Protocol: as §1, §2

[1] = test system: MDA-MB-231 Breast adenocarcinoma; experiment: Cell proliferation assay (ATPlite); type: cell-based; settings: Homo sapiens; MDA-MB-231, Breast adenocarcinoma (Table D); read-out: IC50 in cancer cell line
Protocol: as §1, §2

Breast_MCF7 = experiment: Cell proliferation assay (ATPlite); type: cell-based; settings: Homo sapiens, MCF7; MCF-7, Breast adenocarcinoma (Table D); read-out: IC50 in cancer cell line
Protocol: as §1, §2

Colon_HCT116 = experiment: Cell proliferation assay (ATPlite); type: cell-based; settings: Homo sapiens, HCT-116; HCT116, Colon cancer (Table D); read-out: IC50 in cancer cell line
Protocol: as §1, §2

A549 NSCLC Xenograft = experiment: A549 NSCLC xenograft model; type: in vivo; settings: FIG. 11A, 11B
[2] = Dilution study with D5W (precipitation, chemical stability); type: physicochemical; settings: for Dilution with D5W: salt in 30% CAPTISOL; for Chemical stability in diluted solution: salt in 30% CAPTISOL diluted with D5W
[3] = pH of salt solution in 30% CAPTISOL; type: physicochemical; settings: salt in 30% CAPTISOL
[4] = male, CD-1, mouse, in vivo, ip, 7 days
[5] = molecular target: T1, human EGFR(His672-Ala1210) (Homo sapiens, UniProt P00533); experiment: EGFR kinase assay (HTScan EGF Receptor Kinase Assay Kit); type: biochemical; settings: FIG. 1
T1 construct: a construct expressing human EGFR(His672-Ala1210); GST (N); purchased Cell Signaling Technologies; host or cells: baculovirus expression system
T1 sequence (P00533 672-1210): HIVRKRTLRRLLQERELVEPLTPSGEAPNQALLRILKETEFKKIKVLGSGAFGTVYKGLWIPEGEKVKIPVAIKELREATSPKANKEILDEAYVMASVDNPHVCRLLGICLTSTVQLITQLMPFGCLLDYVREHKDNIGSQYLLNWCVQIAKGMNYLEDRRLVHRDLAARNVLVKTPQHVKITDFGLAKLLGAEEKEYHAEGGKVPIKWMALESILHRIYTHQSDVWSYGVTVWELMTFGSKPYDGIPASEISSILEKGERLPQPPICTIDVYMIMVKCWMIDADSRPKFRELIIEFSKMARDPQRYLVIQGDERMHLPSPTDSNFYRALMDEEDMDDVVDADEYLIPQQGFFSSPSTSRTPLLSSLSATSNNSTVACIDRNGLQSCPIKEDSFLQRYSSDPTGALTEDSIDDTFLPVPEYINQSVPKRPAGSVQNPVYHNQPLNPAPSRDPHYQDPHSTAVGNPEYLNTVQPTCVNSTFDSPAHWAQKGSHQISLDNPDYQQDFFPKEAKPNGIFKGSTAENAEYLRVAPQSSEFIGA
Protocol: The ability of compounds to inhibit receptor kinase (EGFR) activity was assayed using HTScan™ EGF Receptor Kinase Assay Kits (Cell Signaling Technologies, Danvers, Mass.). […] The protein was purified by one-step affinity chromatography using glutathione-agarose.
Immediately transfer enzyme from −80° C. to ice. Allowed enzyme to thaw on ice. […] Returned immediately to ice. […] Incubated reaction plate at room temperature for 30 minutes. […] Added 100 μl/well primary antibody. Incubated at room temperature for 60 minutes. […] Added 100 μl/well diluted antibody. Incubated at room temperature for 30 minutes. […] Incubated at room temperature for 5 minutes.

[6] = test system: EGFR in MDA-MB-468 breast cancer cell line; experiment: EGFR phosphorylation in cells; type: cell-based; settings: FIG. 2
Text: (§3) FIG. 2 illustrates inhibition of HDAC and EGFR in MDA-MB-468 breast cancer cell line: (a) Ac-H4 Accumulation, (b) Ac-H3 Accumulation, (c) EGFR inhibition.

[7] = test system: colon and breast cancer cells (HCT-116, SKBr3); experiment: Induction of apoptosis (Caspase 3&7 activity); type: cell-based; settings: HCT-116 and SKBr3, 24 hours; FIG. 4
[8] = test system: HDAC in MDA-MB-468 breast cancer cell line; experiment: Histone acetylation (Ac-H4, Ac-H3 accumulation) in cells; type: cell-based; settings: FIG. 2
Text: as §3

[9] = Stability of CAPTISOL solution at room temperature; type: physicochemical; settings: 25 mg/ml compound 12 with 8.6 mg tartaric acid in 30% CAPTISOL
[10] = Pharmacokinetic study of compound 12 formulation in mice (iv, ip); type: in vivo; settings: hydrochloride salt
Caki-1 Renal carcinoma = experiment: Cell proliferation assay (ATPlite); type: cell-based; settings: Homo sapiens; Caki-1, Renal carcinoma (Table D); read-out: IC50 in cancer cell line
Protocol: as §1, §2

[11] = Pharmacokinetic study of compound 12 in dogs; type: in vivo; settings: 25 mg/kg tartrate salt in 30% CAPTISOL, FIG. 19
Protocol: (§4) Compound was administered via an intravenous (iv) infusion.
Beagle: 25 mg/kg for 30 min i.v. infusion
(§5) Plasma samples were prepared by protein precipitation. An internal standard was added into plasma samples. […] The supernatant was then injected onto LC/MS/MS.
(§6) Samples were compared to standards made in plasma. These standards were prepared by serial dilution.

[12] = test system: various cancer cell lines; experiment: Cell proliferation assay, various cancer cell lines; type: cell-based; settings: Table D, FIG. 3
Protocol: as §1
Cancer cell lines were plated at 5,000 to 10,000 per well in 96-well flatted bottomed plates with various concentration of compounds. The cells were incubated with compounds for 72 hours in the presence of 0.5% of fetal bovine serum. Growth inhibition was accessed by adenosine triphosphate (ATP) content assay using Perkin Elmer ATPlite kit. ATPlite is an ATP monitoring system based on firefly luciferase. Briefly, 25 μl of mammalian cell lysis solution was added to 50 μl of phenol red-free culture medium per well to lyse the cells and stabilize the ATP. 25 μl of substrate solution was then added to the well and subsequently the luminescence was measured.

[13] = male, CD-1, mouse, in vivo, iv, 9 days
[14] = both, Sprague Dawley, rat, in vivo, iv, 7 days
[15] = test system: HPAC pancreatic cancer cells; experiment: HPAC pancreatic cancer tumor model; type: in vivo; settings: 120 mg/kg in 30% CAPTISOL (iv/ip) daily; FIG. 12A
[16] = Pharmacokinetic study of compound 12 formulation in rats; type: in vivo; settings: hydrochloride salt in 30% CAPTISOL, 20 and 60 mg/kg iv, FIG. 14
Protocol: as §4
Rat: 20 mg/kg for 5 min i.v. infusion
as §5, §6

[17] = both, Sprague Dawley, rat, in vivo, iv, 8 days
HDAC = HDAC fluorimetric enzyme assay (HeLa nuclear extract); type: biochemical
Protocol: HDAC inhibitors were screened using an HDAC fluorimetric assay kit (AK-500, Biomol, Plymouth Meeting, Pa.).
Each assay was setup as follows: Defrosted all kit components and kept on ice until use. […] Prepared dilutions of Trichostatin A (TSA, positive control) and tested compounds in assay buffer (5× of final concentration). Diluted Fluor de Lys™ Substrate in assay buffer to 100 uM (50 fold=2× final). Diluted Fluor de Lys™ developer concentrate 20-fold (e.g. 50 μl plus 950 μl Assay Buffer) in cold assay buffer. Second, diluted the 0.2 mM Trichostatin A 100-fold in the 1× Developer (e.g. 10 μl in 1 ml; final Trichostatin A concentration in the 1× Developer=2 μM; final concentration after addition to HDAC/Substrate reaction=1 μM). Added Assay buffer, diluted trichostatin A or test inhibitor to appropriate wells of the microtiter plate. Added diluted HeLa extract or other HDAC sample to all wells except for negative controls.

Compound: C#Cc1cccc(Nc2ncnc3cc(OC)c(OCCCCCCC(=O)NO)cc23)c1 [Sodium]
Dilution with D5W [2]: >10x | Chemical stability in diluted solution [2]: >12 h | pH [3]: 10-11

Compound: C#Cc1cccc(Nc2ncnc3cc(OC)c(OCCCCCCC(=O)NO)cc23)c1 [Compound 12, 7-(4-(3-ethynylphenylamino)-7-methoxyquinazolin-6-yloxy)-N-hydroxyheptanamide]
dose without significant change in body weight [4]: up to 100 mg/kg | activity in EGFR enzyme assay compared with erlotinib [5]: more active than erlotinib and SAHA | inhibition of EGFR phosphorylation compared with Erlotinib [6]: improvement in inhibition of histone acetylation and EGFR phosphorylation | cell apoptosis measured by increased Caspase 3&7 activity [7]: 4-11 times | inhibition of histone acetylation compared with SAHA [8]: improvement in inhibition of histone acetylation | stability of diluted solution at room temperature ([2]; 60 mg/ml compound 12 with tartaric acid (1.3 eq) in 30% CAPTISOL, diluted in 1x water and 2x D5W): > 12 h | stability of solution [9]: stable at room temperature | dose proportionality of concentration ([10]; 20 and 60 mg/kg, iv and ip): dose proportional when administered intravenously but not intraperitoneally | half-life in tissue versus plasma ([10]; lung, colon, plasma): greater than that in plasma | IC50 (Caki-1 Renal carcinoma): ≤ 0.05 µM | concentration in plasma in 4 hours [11]: less than 10 mg/ml | anti-proliferative activity compared with Erlotinib, SAHA and their combination [12]: more active than Erlotinib and SAHA | dose without significant change in body weight [13]: up to 200 mg/kg | dose without significant change in body weight or food consumption [14]: up to 100 mg/kg | attenuation of tumor growth [15]: greater attenuation of tumor growth than either erlotinib (po) or vehicle | effect on tumor growth / tumor size (A549 NSCLC Xenograft): attenuated tumor growth | dose proportionality of plasma concentration [16]: proportional to the dose | dose without significant change in body weight [17]: up to 200 mg/kg

Compound: C#Cc1cccc(Nc2ncnc3cc(OC)c(OCCCCCCC(=O)NO)cc23)c1 [HCl]
Dilution with D5W [2]: >10x | Chemical stability in diluted solution [2]: >12 h | pH [3]: 2-3

Compound: Citric Acid
Dilution with D5W [2]: >10x | Chemical stability in diluted solution [2]: >12 h

Compound: O=C(/C=C/c1ccc(OCCOc2ccc3ncnc(Nc4ccc(F)c(Cl)c4)c3c2)cc1)NO [Compound 63]
IC50 (HDAC): 0.1 to 1 µM

Compound: Nc1cc(Br)ccc1NC(=O)COc1ccc2ncnc(Nc3ccc(F)c(Cl)c3)c2c1 [Compound 45]
IC50 (HDAC): > 10 µM

Compound: COc1cc2ncnc(Nc3ccc(F)c(Cl)c3)c2cc1OCCCCCCC(=O)N(C)O [Compound 94]
IC50 (HDAC): > 10 µM

Now from value to compound, other results behind:

IC50 [1]: ≤ 5 µM
Compound: C#Cc1cccc(Nc2ncnc3cc(OCCOC)c(OCCOC)cc23)c1 [Erlotinib]
IC50 (Prostate_PC3): ≤ 5 µM | IC50 (Breast_SkBr3): ≤ 5 µM | IC50 (Breast_MCF7): ≤ 5 µM | IC50 (Colon_HCT116): ≤ 5 µM | effect on tumor growth / tumor size (A549 NSCLC Xenograft): did not significantly affect tumor size as compared to control

IC50 (HDAC): < 0.1 µM | activity in HDAC enzyme assay compared with SAHA (HDAC; FIG. 1): more active than erlotinib and SAHA | activity in EGFR enzyme assay compared with erlotinib [5]: more active than erlotinib and SAHA
Compound: COc1cc2ncnc(Nc3ccc(F)c(Cl)c3)c2cc1OCCCCCCC(=O)NO [Compound 6, 7-(4-(3-Chloro-4-fluorophenylamino)-7-methoxyquinazolin-6-yloxy)-N-hydroxyheptanamide]

IC50 (HDAC): < 0.1 µM
Compound: C#Cc1cccc(Nc2ncnc3cc(OCCOC)c(OCCCCCCC(=O)NO)cc23)c1 [Compound 36, 7-(4-(3-Ethynylphenylamino)-7-(2-methoxyethoxy)quinazolin-6-yloxy)-N-hydroxyheptanamide]

IC50 (HDAC): 0.1 to 1 µM
Compound: COCCOc1cc2ncnc(Nc3ccc(F)c(Cl)c3)c2cc1NC(=O)CCCCC(=O)NO [Compound 69, N^1-(4-(3-chloro-4-fluorophenylamino)-7-(2-methoxyethoxy)quinazolin-6-yl)-N^6-hydroxyadipamide]

IC50 (HDAC): < 0.1 µM
Compound: COc1cc2ncnc(N[C@@H](C)c3ccccc3)c2cc1OCCCCCCC(=O)NO [Compound 80, (S)—N-hydroxy-7-(7-methoxy-4-(1-phenylethylamino)quinazolin-6-yloxy) heptanamide]

IC50 (HDAC): < 0.1 µM
Compound: COc1cc2ncnc(Nc3ccc(F)c(Cl)c3)c2cc1OCCCCCC(=O)NO [Compound 5]
